For one molecule, Ki results are on record in BindingDB's records for patent US20240190872 (University of Illinois, 2024).

The target in the assay is T1, Enoyl-[acyl-carrier-protein] reductase [NADH] (UniProt A0A6F8TJQ1).
T1 sequence (A0A6F8TJQ1 whole entry): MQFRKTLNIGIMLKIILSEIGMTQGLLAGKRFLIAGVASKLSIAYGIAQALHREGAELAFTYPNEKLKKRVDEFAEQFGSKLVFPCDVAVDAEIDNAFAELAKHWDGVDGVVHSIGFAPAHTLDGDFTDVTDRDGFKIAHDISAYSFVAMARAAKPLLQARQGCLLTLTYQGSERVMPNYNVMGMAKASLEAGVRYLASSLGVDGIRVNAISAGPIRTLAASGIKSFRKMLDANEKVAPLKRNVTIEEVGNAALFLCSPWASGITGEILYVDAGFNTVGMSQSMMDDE
The assay is described as follows: standard FabI enzyme assay. The method, then: To probe the effects of varying ring systems and amine placement on FabI target engagement, the apparent inhibition constants (Kiapp) for select compounds were determined using purified FabI. The goal of these studies was two-fold, to comparatively assess fabimycin, Debio-1452-NH3, and Debio-1452, and to also assess differential activity against the E. coli and A. baumannii versions of FabI. FabI from E. coli and A. baumannii were recombinantly expressed and purified, and the ability for each compound to inhibit the activity of these enzymes was evaluated using a standard FabI enzyme assay.

With `Cc1c(CN(C)C(=O)/C=C/c2cnc3c(c2)C[C@@H](N)C(=O)N3)oc2ccccc12` [US20240190872, Compound (+-)-Debio-1452-NH3], the Ki came out at 114 nM.
